# In patent publication US10479780B2, “Aminopyrazole derivatives” (Chugai Seiyaku Kabushiki Kaisha, priority 2015, dated 2019):
# pIC50: −log10 of the molar value.
# Assays:
# Type in all cases: biochemical
# human Yes1 enzyme = target: T1, human Yes1 enzyme (Homo sapiens, UniProt P07947); experiment: Yes1 enzyme inhibitory activity (time-resolved fluorometry, biotinylated peptide phosphorylation); details: read-out: YES_IC50
# T1 construct: made in house
# Outline: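 Inhibition was expressed against a compound-free control to give IC50, using TR-FRET read-out (Eu-cryptate anti-pTyr antibody, streptavidin-XL665).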
# human Src enzyme = target: T2, human Src enzyme (Homo sapiens, UniProt P12931); experiment: Src enzyme inhibitory activity (time-resolved fluorometry, biotinylated peptide phosphorylation); details: read-out: SRC_IC50
# T2 construct: purchased Carna Biosciences, Inc. 08-173
# Outline: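 Compounds were tested for blocking tyrosine phosphorylation of a biotinylated peptide substrate by recombinant human Src. Phosphorylated product was quantified by time-resolved fluorometry using europium cryptate and XL665 conjugates, and IC50 was calculated against the compound-free control.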
# human Lck enzyme = target: T3, human Lck enzyme (Homo sapiens, UniProt P06239); experiment: Lck enzyme inhibitory activity (time-resolved fluorometry, biotinylated peptide phosphorylation); details: read-out: LCK_IC50
# T3 construct: purchased Carna Biosciences, Inc. 08-170
# Outline: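 Readout pairs a europium cryptate-labelled anti-phosphotyrosine antibody with XL665-streptavidin, measured by time-resolved fluorescence. IC50 derived from percent inhibition against untreated controls.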
# T3 sequence (P06239 whole entry): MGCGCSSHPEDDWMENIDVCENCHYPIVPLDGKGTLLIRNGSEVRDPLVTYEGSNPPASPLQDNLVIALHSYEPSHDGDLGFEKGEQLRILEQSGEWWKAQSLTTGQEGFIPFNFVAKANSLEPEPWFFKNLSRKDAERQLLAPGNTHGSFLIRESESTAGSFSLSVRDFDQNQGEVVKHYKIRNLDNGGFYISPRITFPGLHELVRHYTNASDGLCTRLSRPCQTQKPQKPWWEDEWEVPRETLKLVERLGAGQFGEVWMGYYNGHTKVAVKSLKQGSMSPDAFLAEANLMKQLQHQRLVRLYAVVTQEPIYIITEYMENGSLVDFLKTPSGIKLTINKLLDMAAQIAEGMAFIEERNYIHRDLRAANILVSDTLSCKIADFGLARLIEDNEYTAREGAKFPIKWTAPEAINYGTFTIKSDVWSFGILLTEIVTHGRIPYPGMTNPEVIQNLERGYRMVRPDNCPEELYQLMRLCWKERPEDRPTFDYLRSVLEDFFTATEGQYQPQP
# T1 sequence (P07947 whole entry): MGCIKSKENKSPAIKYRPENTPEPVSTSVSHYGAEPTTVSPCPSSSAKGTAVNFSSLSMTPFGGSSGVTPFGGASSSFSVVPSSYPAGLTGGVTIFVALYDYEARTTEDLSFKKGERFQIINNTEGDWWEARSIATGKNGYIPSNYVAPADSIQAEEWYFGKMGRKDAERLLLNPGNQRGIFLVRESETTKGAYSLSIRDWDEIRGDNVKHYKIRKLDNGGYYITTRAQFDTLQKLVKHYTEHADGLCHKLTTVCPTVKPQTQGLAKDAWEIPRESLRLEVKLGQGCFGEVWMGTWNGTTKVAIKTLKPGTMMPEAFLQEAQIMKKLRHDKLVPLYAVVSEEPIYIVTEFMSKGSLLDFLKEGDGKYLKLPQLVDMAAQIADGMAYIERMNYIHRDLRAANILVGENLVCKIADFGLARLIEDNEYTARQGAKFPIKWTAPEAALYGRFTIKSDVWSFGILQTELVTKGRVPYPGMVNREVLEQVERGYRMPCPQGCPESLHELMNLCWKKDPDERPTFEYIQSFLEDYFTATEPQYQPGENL
# T2 sequence (P12931 whole entry): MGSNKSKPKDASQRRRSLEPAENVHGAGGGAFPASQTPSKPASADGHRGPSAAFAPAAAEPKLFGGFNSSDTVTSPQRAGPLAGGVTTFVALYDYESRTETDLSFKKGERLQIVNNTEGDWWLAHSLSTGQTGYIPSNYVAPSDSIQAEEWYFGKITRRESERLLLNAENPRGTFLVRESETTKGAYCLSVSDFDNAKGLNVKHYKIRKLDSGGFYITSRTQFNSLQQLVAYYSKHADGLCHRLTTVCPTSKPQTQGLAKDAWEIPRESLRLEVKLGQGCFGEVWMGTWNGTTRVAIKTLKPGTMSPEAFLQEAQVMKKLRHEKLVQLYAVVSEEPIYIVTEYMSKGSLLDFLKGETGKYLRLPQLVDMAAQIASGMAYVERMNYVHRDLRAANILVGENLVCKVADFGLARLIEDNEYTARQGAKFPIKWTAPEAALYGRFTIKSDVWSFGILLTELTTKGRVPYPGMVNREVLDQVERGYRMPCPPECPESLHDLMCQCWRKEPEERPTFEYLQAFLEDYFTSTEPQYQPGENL
SMILES,pIC50 (human Yes1 enzyme),pIC50 (human Src enzyme),pIC50 (human Lck enzyme)
"Cc1cc2cc(C(=O)c3cnn(-c4cnc(Oc5c(F)cccc5F)cc4C)c3N)[nH]c2cc1N1C(=O)NC2(CCN(Cc3ccccc3)CC2)C1=O [Example 5-1-361, 3-[2-[5-amino-1-[6-(2,6-difluorophenoxy)-4-methylpyridin-3-yl]pyrazole-4-carbonyl]-5-methyl-1H-indol-6-yl]-8-benzyl-1,3,8-triazaspiro[4.5]decane-2,4-dione]",8.04,6.77,7.59
"Cc1cc2cc(C(=O)c3cnn(-c4cnc(Oc5c(F)cccc5F)cc4C)c3N)[nH]c2cc1N1C(=O)NC2(CC2)C1=O [Example 5-1-366, 6-[2-[5-amino-1-[6-(2,6-difluorophenoxy)-4-methylpyridin-3-yl]pyrazole-4-carbonyl]-5-methyl-1H-indol-6-yl]-4,6-diazaspiro[2.4] heptane-5,7-dione]",8.43,7.41,8.00
"Cc1cc(Oc2c(F)cccc2F)ncc1-n1ncc(C(=O)c2cc3cc(F)c(N4C(=O)NC5(CCOCC5)C4=O)cc3[nH]2)c1N [Example 5-1-368, 3-[2-[5-amino-1-[6-(2,6-difluorophenoxy)-4-methylpyridin-3-yl]pyrazole-4-carbonyl]-5-fluoro-1H-indol-6-yl]-8-oxa-1,3-diazaspiro[4.5] decane-2,4-dione]",8.42,7.21,8.06
"Cc1cc(Oc2c(F)cccc2F)ncc1-n1ncc(C(=O)c2cc3cc(F)c(N4C(=O)NC(C)(C(F)(F)F)C4=O)cc3[nH]2)c1N (stereo not drawn) [Example 5-1-370, 3-[2-[5-amino-1-[6-(2,6-difluorophenoxy)-4-methylpyridin-3-yl]pyrazole-4-carbonyl]-5-fluoro-1H-indol-6-yl]-5-methyl-5-(trifluoromethyl)imidazolidine-2,4-dione]",8.08,6.82,7.57
"Cc1cc2cc(C(=O)c3cnn(-c4ccc(Oc5ccccc5F)cc4C)c3N)[nH]c2cc1N1C(=O)NC2(CCC2)C1=O [Example 5-1-371, 7-[2-[5-amino-1-[4-(2-fluorophenoxy)-2-methylphenyl]pyrazole-4-carbonyl]-5-methyl-1H-indol-6-yl]-5,7-diazaspiro[3.4]octane-6,8-dione]",8.70,7.52,8.01
"Cc1cc2cc(C(=O)c3cnn(-c4ccc(Oc5ccccc5F)cc4C)c3N)[nH]c2cc1N1C(=O)NC2(CCCC2)C1=O [Example 5-1-373, 3-[2-[5-amino-1-[4-(2-fluorophenoxy)-2-methylphenyl]pyrazole-4-carbonyl]-5-methyl-1H-indol-6-yl]-1,3-diazaspiro[4.4]nonane-2,4-dione]",8.51,7.32,7.85
"Cc1cc(Oc2ccccc2F)ccc1-n1ncc(C(=O)c2cc3cc(F)c(N4C(=O)NC5(CCC5)C4=O)cc3[nH]2)c1N [Example 5-1-374, 7-[2-[5-amino-1-[4-(2-fluorophenoxy)-2-methylphenyl]pyrazole-4-carbonyl]-5-fluoro-1H-indol-6-yl]-5,7-diazaspiro[3.4]octane-6,8-dione]",8.54,7.44,7.89
"Cc1cc(Oc2ccccc2F)ccc1-n1ncc(C(=O)c2cc3cc(F)c(N4C(=O)NC5(COC5)C4=O)cc3[nH]2)c1N [Example 5-1-376, 7-[2-[5-amino-1-[4-(2-fluorophenoxy)-2-methylphenyl]pyrazole-4-carbonyl]-5-fluoro-1H-indol-6-yl]-2-oxa-5,7-diazaspiro[3.4] octane-6,8-dione]",8.85,7.85,8.40
"Cc1cc(Oc2ccccc2F)ncc1-n1ncc(C(=O)c2cc3cc(F)c(NS(=O)(=O)C4CCOCC4)cc3[nH]2)c1N [Example 5-1-378, N-[2-[5-amino-1-[6-(2-fluorophenoxy)-4-methylpyridin-3-yl]pyrazole-4-carbonyl]-5-fluoro-1H-indol-6-yl]oxane-4-sulfonamide]",8.55,7.20,7.43
"Cc1cc(Oc2c(F)cccc2F)ncc1-n1ncc(C(=O)c2cc3cc(OCC(F)F)c(NS(=O)(=O)c4cccc(C#N)c4)cc3[nH]2)c1N [Example 5-1-382, N-[2-[5-amino-1-[6-(2,6-difluorophenoxy)-4-methylpyridin-3-yl]pyrazole-4-carbonyl]-5-(2,2-difluoroethoxy)-1H-indol-6-yl]-3-cyanobenzenesulfonamide]",8.60,6.59,7.51

# The remaining molecules from weak to strong by pIC50 (human Yes1 enzyme), led by results:
pIC50 (human Yes1 enzyme),pIC50 (human Src enzyme),pIC50 (human Lck enzyme),SMILES
7.66,6.25,7.10,"Cc1cc(Oc2c(F)cccc2F)ncc1-n1ncc(C(=O)c2cc3cc(F)c(N4C(=O)NC5(CCCCC5)C4=O)cc3[nH]2)c1N [Example 5-1-369, 3-[2-[5-amino-1-[6-(2,6-difluorophenoxy)-4-methylpyridin-3-yl]pyrazole-4-carbonyl]-5-fluoro-1H-indol-6-yl]-1,3-diazaspiro[4.5]decane-2,4-dione]"
7.96,6.59,7.51,"Cc1cc2cc(C(=O)c3cnn(-c4cnc(Oc5c(F)cccc5F)cc4C)c3N)[nH]c2cc1N1C(=O)NC2(CCN(Cc3ccccc3)C2)C1=O (stereo not drawn) [Example 5-1-363, 3-[2-[5-amino-1-[6-(2,6-difluorophenoxy)-4-methylpyridin-3-yl]pyrazole-4-carbonyl]-5-methyl-1H-indol-6-yl]-7-benzyl-1,3,7-triazaspiro[4.4]nonane-2,4-dione]"
8.20,7.02,6.96,"Cc1cc(Oc2c(F)cccc2F)ncc1-n1ncc(C(=O)c2cc3cc(OC(F)F)c(NS(=O)(=O)C4CCOCC4)cc3[nH]2)c1N [Example 5-1-380, N-[2-[5-amino-1-[6-(2,6-difluorophenoxy)-4-methylpyridin-3-yl]pyrazole-4-carbonyl]-5-(difluoromethoxy)-1H-indol-6-yl]oxane-4-sulfonamide]"
8.25,7.11,7.80,"Cc1cc2cc(C(=O)c3cnn(-c4cnc(Oc5c(F)cccc5F)cc4C)c3N)[nH]c2cc1N1C(=O)NC2(CCCC2)C1=O [Example 5-1-367, 3-[2-[5-amino-1-[6-(2,6-difluorophenoxy)-4-methylpyridin-3-yl]pyrazole-4-carbonyl]-5-methyl-1H-indol-6-yl]-1,3-diazaspiro[4.4] nonane-2,4-dione]"
8.35,7.21,7.96,"Cc1cc(Oc2ccccc2F)ncc1-n1ncc(C(=O)c2cc3cc(F)c(N4C(=O)NC(C)(C)C4=O)cc3[nH]2)c1N [Example 5-1-379, 3-[2-[5-amino-1-[6-(2-fluorophenoxy)-4-methylpyridin-3-yl]pyrazole-4-carbonyl]-5-fluoro-1H-indol-6-yl]-5,5-dimethylimidazolidine-2,4-dione]"
8.48,7.25,7.37,"Cc1cc(Oc2c(F)cccc2F)ncc1-n1ncc(C(=O)c2cc3cc(F)c(NS(=O)(=O)C4CCOCC4)cc3[nH]2)c1N [Example 5-1-381, N-[2-[5-amino-1-[6-(2,6-difluorophenoxy)-4-methylpyridin-3-yl]pyrazole-4-carbonyl]-5-fluoro-1H-indol-6-yl]oxane-4-sulfonamide]"
8.70,7.54,8.19,"Cc1cc2cc(C(=O)c3cnn(-c4cnc(Oc5c(F)cccc5F)cc4C)c3N)[nH]c2cc1N1C(=O)NC2(CCN(C3COC3)C2)C1=O (stereo not drawn) [Example 5-1-362, 3-[2-[5-amino-1-[6-(2,6-difluorophenoxy)-4-methylpyridin-3-yl]pyrazole-4-carbonyl]-5-methyl-1H-indol-6-yl]-7-(oxetan-3-yl)-1,3,7-triazaspiro[4.4]nonane-2,4-dione]"
8.70,7.62,8.15,"Cc1cc(Oc2ccccc2F)ccc1-n1ncc(C(=O)c2cc3cc(F)c(N4C(=O)NC5(CC5)C4=O)cc3[nH]2)c1N [Example 5-1-375, 6-[2-[5-amino-1-[4-(2-fluorophenoxy)-2-methylphenyl]pyrazole-4-carbonyl]-5-fluoro-1H-indol-6-yl]-4,6-diazaspiro[2.4]heptane-5,7-dione]"
8.70,7.77,8.13,"Cc1cc(Oc2ccccc2F)ncc1-n1ncc(C(=O)c2cc3cc(OCC(F)F)c(N4C(=O)NC(C)(C)C4=O)cc3[nH]2)c1N [Example 5-1-377, 3-[2-[5-amino-1-[6-(2-fluorophenoxy)-4-methylpyridin-3-yl]pyrazole-4-carbonyl]-5-(2,2-difluoroethoxy)-1H-indol-6-yl]-5,5-dimethylimidazolidine-2,4-dione]"
8.82,7.74,8.24,"Cc1cc2cc(C(=O)c3cnn(-c4ccc(Oc5ccccc5F)cc4C)c3N)[nH]c2cc1N1C(=O)NC2(CCNC2)C1=O (stereo not drawn) [Example 5-1-365, 3-[2-[5-amino-1-[4-(2-fluorophenoxy)-2-methylphenyl]pyrazole-4-carbonyl]-5-methyl-1H-indol-6-yl]-1,3,7-triazaspiro[4.4]nonane-2,4-dione]"
8.89,7.74,8.27,"Cc1cc2cc(C(=O)c3cnn(-c4ccc(Oc5ccccc5F)cc4C)c3N)[nH]c2cc1N1C(=O)NC2(CCNCC2)C1=O [Example 5-1-364, 3-(2-(5-amino-1-(4-(2-fluorophenoxy)-2-methylphenyl)-1H-pyrazole-4-carbonyl)-5-methyl-1H-indol-6-yl)-1,3,8-triazaspiro[4.5]decane-2,4-dione]"
8.89,7.80,8.21,"Cc1cc2cc(C(=O)c3cnn(-c4ccc(Oc5ccccc5F)cc4C)c3N)[nH]c2cc1N1C(=O)NC2(CC2)C1=O [Example 5-1-372, 6-[2-[5-amino-1-[4-(2-fluorophenoxy)-2-methylphenyl]pyrazole-4-carbonyl]-5-methyl-1H-indol-6-yl]-4,6-diazaspiro[2.4]heptane-5,7-dione]"
